Where two headings read alike, the source gives them in different places. One block for each molecule: values may come before it.
What was measured:
[1] = test system: KRas G12D-mediated ERK phosphorylation; experiment: Inhibition of KRas G12D-mediated ERK phosphorylation in AGS cells; type: cell-based; details: read-out: AGS-pERK IC50
Procedure: Day 1: AGS cells were seeded into 384-well cell culture plates and cultured overnight in a 37° C., 5% CO2 incubator.
Day 2: The compounds were added to the plates using Echo550 and incubated for 3 h in a 37° C., 5% CO2 incubator. Then cells were fixed with paraformaldehyde, permeated with methanol, and blocked with the blocking solution. Finally, a mixed solution of primary antibodies (rabbit anti pERK, mouse anti GAPDH) was added, and the mixture was incubated at 4° C. overnight.
Day 3: The mixed solution of primary antibodies was discarded, and a mixed solution of secondary antibodies (goat anti rabbit 800CW, goat anti mouse 680RD) was added. The mixture was incubated at room temperature in the dark. Finally, the cell culture plate was washed with PBST, and then inverted for 1 minute of centrifugation. The fluorescence signal values were read with Odyssey CLx.
ERK phosphorylation was calculated according to the following formula: […]
X: log value of compound concentration.
Y: average value of relative expression of p-ERK between replicate wells.

[2] = Pharmacokinetics of compounds in rats (oral); type: in vivo, SD rats; details: male SD rats
Procedure: Male SD rats were purchased from Shanghai SIPPR-Bk Lab Animal Co., Ltd. Each test compound was administered orally (3 rats per group) once to SD rats for pharmacokinetic study. The test compounds were prepared on the day of administration. The test compounds were suspended in 5% DMSO+95% saline, and then vortexed for 2 min and ultrasonicated for 5 min to prepare the administration system. The animals were fasted for 10-14 h before oral administration, and the feeding was resumed 4 h after administration. After oral administration by gavage, pharmacokinetic samples were collected from SD rats through the jugular vein. The collection time points were: before administration, 15 min, 30 min, 1 h, 2 h, 4 h, 6 h, 8 h and 24 h after administration. Three whole blood samples were collected at each time point, with a collection volume of about 0.2 mL, and anticoagulated with sodium heparin. After blood samples were collected, they were immediately placed on ice and centrifuged to separate plasma within 1 hour (centrifugation conditions: 6800 rpm, 6 min, 2-8° C.). The collected plasma was stored in a −80° C. refrigerator before analysis.

[3] = male, SD, rat, plasma, po, 100 mg/kg, 100 mg/kg, read-out: AUC
[4] = male, SD, rat, plasma, po, 100 mg/kg, 100 mg/kg, read-out: Cmax

- IC50 [1]: 12 nM
Molecule: 4-(4-((1R,5S)-3,8-diazabicyclo[3.2.1]octan-3-yl)-2-((3-(1,3-dihydroisobenzofuran-5-yl-1,1,3,3-d4)tetrahydro-1H-pyrrolizin-7a(5H)-yl)methoxy)-8-fluoropyridin[4,3-d]pyrimidin-7-yl)naphthalen-2-ol [Example 148]

- AUC ([2]; 10 mg/kg): 75 ng·h/mL
- Cmax ([2]; 10 mg/kg): 25 ng/mL
- IC50 [1]: 27 nM
Molecule: 4-(4-((1R,5S)-3,8-diazabicyclo[3.2.1]octan-3-yl)-8-fluoro-2-((3-(4-methoxyphenyl)tetrahydro-1H-pyrrolidin-7a(5H)-yl)methoxy)pyrido[4,3-d]pyrimidin-7-yl)-5,6-difluoronaphthalen-2-ol [Example 34]

Molecule: CC1(C)OC(C)(C)c2cc([C@H]3CCC4(COc5nc(N6CC7CCC(C6)N7)c6cnc(-c7cc(O)cc8ccc(F)c(F)c78)c(F)c6n5)CCCN34)ccc21 (mixture of isomers) [Example 211]
- AUC ([2]; 100 mg/kg): 225 ng·h/mL
- Cmax ([2]; 100 mg/kg): 97 ng/mL
- IC50 [1]: 0.96 nM

Molecule: Cc1ccc([C@H]2CCC3(COc4nc(N5CC6CCC(C5)N6)c5cnc(-c6cc(O)cc7ccc(F)c(F)c67)c(F)c5n4)CCCN23)cc1 (mixture of isomers) [Example 213]
- IC50 ([1]; Homo sapiens, AGS): 1.8 nM

Molecule: C#Cc1c(F)ccc2cc(O)cc(-c3ncc4c(N5CC6CCC(C5)N6)nc(OCC56CCCN5[C@@H](c5ccc(OC(F)(F)F)cc5)CC6)nc4c3F)c12 (mixture of isomers) [Example 214]
- IC50 ([1]; Homo sapiens, AGS): 1 nM

Molecule: Oc1cc(-c2ncc3c(N4CC5CCC(C4)N5)nc(OCC45CCCN4[C@@H](c4ccc6c(c4)COC6)CC5)nc3c2F)c2c(F)c(F)ccc2c1 (mixture of isomers) [Example 217]
- IC50 ([1]; Homo sapiens, AGS): 1.3 nM

Molecule: Oc1cc(-c2ncc3c(N4CC5CCC(C4)N5)nc(OCC45CCCN4[C@@H](c4ccc6ccccc6c4)CC5)nc3c2F)c2c(F)c(F)ccc2c1 (mixture of isomers) [Example 218]
- IC50 ([1]; Homo sapiens, AGS): 2.4 nM

Molecule: Oc1cc(-c2ncc3c(N4CC5CCC(C4)N5)nc(OCC45CCCN4[C@@H](c4ccc(C(F)(F)F)c(C(F)(F)F)c4)CC5)nc3c2F)c2c(F)c(F)ccc2c1 (mixture of isomers) [Example 219]
- IC50 ([1]; Homo sapiens, AGS): 6.2 nM

Molecule: Oc1cc(-c2ncc3c(N4CC5CCC(C4)N5)nc(OCC45CCCN4[C@@H](c4ccc(Cl)c(Cl)c4)CC5)nc3c2F)c2c(F)c(F)ccc2c1 (mixture of isomers) [Example 220]
- AUC [2, 3]: 140 ng·h/mL
- Cmax [2, 4]: 38 ng/mL
- IC50 ([1]; Homo sapiens, AGS): 3.2 nM

Molecule: Oc1cc(-c2ncc3c(N4CC5CCC(C4)N5)nc(OCC45CCCN4[C@@H](c4cc(F)c(F)c(F)c4)CC5)nc3c2F)c2c(F)c(F)ccc2c1 (mixture of isomers) [Example 222]
- Cmax ([2]; 100 mg/kg): 82 ng/mL
- AUC [2, 3]: 258 ng·h/mL
- IC50 ([1]; Homo sapiens, AGS): 1.1 nM

Molecule: Oc1cc(-c2ncc3c(N4CC5CCC(C4)N5)nc(OCC45CCCN4[C@@H](c4ccc(F)c(F)c4)CC5)nc3c2F)c2c(F)c(F)ccc2c1 (mixture of isomers) [Example 224]
- IC50 ([1]; Homo sapiens, AGS): 0.7 nM

Molecule: COc1cc([C@H]2CCC3(COc4nc(N5CC6CCC(C5)N6)c5cnc(-c6cc(O)cc7ccc(F)c(F)c67)c(F)c5n4)CCCN23)ccc1C(F)(F)F (mixture of isomers) [Example 228]
- IC50 ([1]; Homo sapiens, AGS): 1.9 nM

Molecule: Cc1cc(N)cc(-c2ncc3c(N4CC5CCC(C4)N5)nc(OCC45CCCN4[C@@H](c4ccc6c(c4)OC(F)(F)O6)CC5)nc3c2F)c1C(F)(F)F (mixture of isomers) [Example 235]
- IC50 ([1]; Homo sapiens, AGS): 13 nM

Molecule: Oc1cc(-c2ncc3c(N4CC5CCC(C4)N5)nc(OCC45CCCN4[C@@H](c4ccc(F)cc4)CC5)nc3c2F)c2c(F)c(F)ccc2c1 (single isomer, unassigned) [Example 193]
- IC50 ([1]; Homo sapiens, AGS): 9.1 nM

Molecule: C#Cc1c(F)ccc2cc(O)cc(-c3ncc4c(N5CC6CCC(C5)N6)nc(OCC56CCCN5[C@@H](c5ccc(F)cc5)CC6)nc4c3F)c12 (single isomer, unassigned) [Example 196]
- IC50 ([1]; Homo sapiens, AGS): 1.4 nM

Molecule: CC1(C)OC(C)(C)c2cc([C@H]3CCC4(COc5nc(N6CC7CCC(C6)N7)c6cnc(-c7cc(O)cc8ccc(F)c(F)c78)c(F)c6n5)CCCN34)ccc21 (single isomer, unassigned) [Example 198]
- AUC [2, 3]: 219 ng·h/mL
- Cmax [2, 4]: 141 ng/mL
- IC50 ([1]; Homo sapiens, AGS): 0.72 nM

Molecule: Oc1cc(-c2ncc3c(N4CC5CCC(C4)N5)nc(OCC45CCCN4[C@@H](c4ccc(C(F)(F)F)cc4)CC5)nc3c2F)c2c(F)c(F)ccc2c1 (single isomer, unassigned) [Example 202]
- IC50 ([1]; Homo sapiens, AGS): 1.8 nM

Molecule: C#Cc1c(F)ccc2cc(O)cc(-c3ncc4c(N5CC6CCC(C5)N6)nc(OCC56CCCN5[C@@H](c5ccc(C(F)(F)F)cc5)CC6)nc4c3F)c12 (single isomer, unassigned) [Example 204]
- IC50 ([1]; Homo sapiens, AGS): 0.78 nM

- AUC ([2]; 100 mg/kg): 537 ng·h/mL
- Cmax ([2]; 100 mg/kg): 164 ng/mL
- IC50 [1]: 41 nM
Molecule: Oc1cc(-c2ncc3c(N4C[C@H]5CC[C@@H](C4)N5)nc(OCC45CCCN4C(c4ccc6c(c4)COC6)CC5)nc3c2F)c2ccccc2c1 (stereo partly drawn) [Example 43, 4-(4-((1R,5S)-3,8-diazabicyclo[3.2.1]octan-3-yl)-2-((3-(1,3-dihydroisobenzofuran-5-yl)tetrahydro-1H-pyrrolidin-7a(5H)-yl)methoxy)-8-fluoropyrido[4,3-d]pyrimidin-7-yl)naphthalen-2-ol]

- IC50 [1]: 6 nM
Molecule: C#Cc1c(F)ccc2cc(O)cc(-c3ncc4c(N5C[C@H]6CC[C@@H](C5)N6)nc(OCC56CCCN5C(c5ccc(OC)cc5)CC6)nc4c3F)c12 (stereo partly drawn) [Example 52, 4-(4-((1R,5S)-3,8-diazabicyclo[3.2.1]octan-3-yl)-8-fluoro-2-((3-(4-methoxyphenyl)tetrahydro-1H-pyrrolidin-7a(5H)-yl)methoxy)pyrido[4,3-d]pyrimidin-7-yl)-5-ethynyl-6-fluoronaphthalen-2-ol]

Molecule: Oc1cc(-c2ncc3c(N4CC5CCC(C4)N5)nc(OCC45CCCN4C(c4ccc(F)cc4)CC5)nc3c2F)c2c(F)c(F)ccc2c1 (stereo not drawn) [Example 108]
- AUC [2, 3]: 2090 ng·h/mL
- Cmax [2, 4]: 157 ng/mL
- IC50 [1]: 14 nM

Molecule: Oc1cc(-c2ncc3c(N4CC5CCC(C4)N5)nc(OCC45CCCN4C(c4cccc(F)c4)CC5)nc3c2F)c2c(F)c(F)ccc2c1 (stereo not drawn) [Example 110]
- IC50 ([1]; Homo sapiens, AGS): 35 nM

Molecule: COc1ccc(C2CCC3(COc4nc(N5CC6CCC(C5)N6)c5cnc(-c6cc(O)cc7ccc(F)c(F)c67)c(F)c5n4)CCCN23)cc1OC (stereo not drawn) [Example 113]
- IC50 ([1]; Homo sapiens, AGS): 15 nM

Molecule: Oc1cc(-c2ncc3c(N4CC5CCC(C4)N5)nc(OCC45CCCN4C(c4ccc6c(c4)OCO6)CC5)nc3c2F)c2c(F)c(F)ccc2c1 (stereo not drawn) [Example 114]
- IC50 ([1]; Homo sapiens, AGS): 14 nM

Molecule: CC1(C)OCc2cc(C3CCC4(COc5nc(N6C[C@H]7CC[C@@H](C6)N7)c6cnc(-c7cc(O)cc8ccc(F)c(F)c78)c(F)c6n5)CCCN34)ccc21 (stereo partly drawn) [Example 146, 4-(4-((1R,5S)-3,8-diazabicyclo[3.2.1]octan-3-yl)-2-((3-(1,1-dimethyl-1,3-dihydroisobenzofuran-5-yl)tetrahydro-1H-pyrrolizin-7a(5H)-yl)methoxy)-8-fluoropyrido[4,3-d]pyrimidin-7-yl)-5,6-difluoronaphthalen-2-ol]
- AUC [2, 3]: 483 ng·h/mL
- Cmax [2, 4]: 143 ng/mL
- IC50 ([1]; Homo sapiens, AGS): 11 nM

Molecule: [2H]C1([2H])OCc2cc(C3CCC4(COc5nc(N6C[C@H]7CC[C@@H](C6)N7)c6cnc(-c7cc(O)cc8ccc(F)c(F)c78)c(F)c6n5)CCCN34)ccc21 (stereo partly drawn) [Example 151, 4-(4-((1R,5S)-3,8-diazabicyclo[3.2.1]octan-3-yl)-2-((3-(1,3-dihydroisobenzofuran-5-yl-1,1-d2)tetrahydro-1H-pyrrolizin-7a(5H)-yl)methoxy)-8-fluoropyrido[4,3-d]pyrimidin-7-yl)-5,6-difluoronaphthalen-2-ol]
- IC50 ([1]; Homo sapiens, AGS): 7.6 nM

Molecule: C#Cc1c(F)ccc2cc(O)cc(-c3ncc4c(N5CC6CCC(C5)N6)nc(OCC56CCCN5C(c5ccc7c(c5)COC7)CC6)nc4c3F)c12 (stereo not drawn) [Example 178]
- IC50 ([1]; Homo sapiens, AGS): 3.8 nM

Molecule: Oc1cc(-c2ncc3c(N4CC5CCC(C4)N5)nc(OCC45CCCN4C(c4ccc(F)cc4)CC5)nc3c2F)c2c(F)c(F)ccc2c1 (stereo not drawn) [Example 194]
- IC50 [1]: 1.1 nM

Molecule: COc1ccc([C@H]2CCC3(COc4nc(N5CC6CCC(C5)N6)c5cnc(-c6cc(O)cc7ccc(F)c(F)c67)c(F)c5n4)CCCN23)cc1OC(F)(F)F (stereo partly drawn) [Example 216]
- IC50 ([1]; Homo sapiens, AGS): 1.6 nM

Molecule: Nc1cc(F)c(C(F)(F)F)c(-c2ncc3c(N4CC5CCC(C4)N5)nc(OCC45CCCN4C(c4ccc6c(c4)OC(F)(F)O6)CC5)nc3c2F)c1 (stereo not drawn) [Example 237]
- AUC [2, 3]: 1510 ng·h/mL
- Cmax [2, 4]: 362 ng/mL

Molecule: Nc1cc(Cl)c(C(F)(F)F)c(-c2ncc3c(N4CC5CCC(C4)N5)nc(OCC45CCCN4C(c4ccc(F)c(F)c4)CC5)nc3c2F)c1 (stereo not drawn) [Example 244]
- IC50 ([1]; Homo sapiens, AGS): 6.4 nM

From patent US20250206759A1, “FUSED RING COMPOUND, PHARMACEUTICAL COMPOSITION CONTAINING SAME, AND USE OF FUSED RING COMPOUND” (CHENGDU HYPERWAY PHARMACEUTICALS CO., LTD., priority 2022, published 2025)
